Results reported in paper PMC4738305, “Metabolism and Disposition of Aditoprim in Swine, Broilers, Carp and Rats” (Scientific Reports, 2016).

Assay: Tissue distribution and elimination of total radioactivity (total residues) after oral ^3H-ADP for 7 d
Assay type: in vivo
Settings: rats, 5 mg/kg b.w. 7 days
Procedure: (0.1 Ci/g) through oral gavage for 7 consecutive days. All the animals were housed on the basis of their group in the cages or aquaria throughout the whole study period. A group of animals was slaughtered through exsanguination under diethyl ether inhalation of anesthesia in the period of 6 h, 1, 3, 7, 14, and 21 d after the administration. The blood samples were immediately collected into the heparinized tubes and was centrifuged at 1920 × g at 4 °C for 10 min to obtain the plasma. The tissues from the heart, liver, spleen, lung, kidney, craw (broilers), stomach, intestine, fat, skin, muscle, thymus, pancreas, bile, bladder, hair (scale for carp), genital gland, adrenal glands, swim bladder (carp), brain, lymph, and bursa (broilers) were carefully excised and collected. The tissues were thoroughly rinsed with the deionized water to remove the residuary blood, blotted to dryness, and finally to perform the homogenization. In order to avoid cross-contamination the dissecting instruments were washed during the tissue procurements. The blank tissues were collected in order to provide control matrices. The total radioactivity levels in each sample were determined through LSC. The samples extracted from the plasma, bile, and tissues of the liver, kidney, muscle, and fat/skin were analyzed through LC/MS-IT-TOF and v. ARC radiometric detection for metabolite profiling.
Measurements of the total radioactivity in each sample were conducted by Packard Tri-Carb 2900 TR liquid scintillation counter (PerkinElmer Life and Analytical Sciences). The detection time was 10 min for two cycles. The scintillation counter data were automatically corrected for counting efficiency by instrument-stored quench curve which was drawn with a series of sealed quenched […] standards. The actual radioactivity of each sample was calculated by subtracting the background value form the mean radioactivity in two blank samples. All the samples were analyzed in duplicate if the sample size allowed this. If the results were differed by more than 10% from the mean value, the samples were reanalyzed. The samples with LSC counts less than 2-fold of the level of the running background were considered to contain insufficient radioactivity for reliable quantification.
Aliquots of liquid samples (urine, plasma, bile and raised water, 200 μL) were mixed with 10 mL of Ultima Gold^TM scintillation fluid for the direct analysis by LSC. Aliquots of solid samples (feces and tissues, 200 mg) were digested overnight with 2 mL tissue solubilizer at 50 °C in a shaking water bath, followed by adding 200 μL of 0.1 mol/L EDTA-Na and 200 μL of 30% H2O2, and was bathed at 50 °C for 2 h to bleach. The obtained transparent liquid were mixed with 10 mL of scintillation fluid and finally were counted by LSC. The digestion efficiency was determined by using the blank samples spiked with ^3 H standard for digestion, and the measured radioactivity content in the digested samples were adjusted by using the digestion efficiency values.
The concentrations of ADP and/or its metabolites were analyzed by using the following equation: C = L/(2.22 × 10^9 × RM), where C is the concentration of ADP or/and its metabolites (mg/kg), L is the LSC count (dpm), R is the specific activity of the administered dose (0.1 Ci/g), and M is the weight or volume of samples (kg or L). The results are expressed as mean ± SD. The elimination kinetics of terminal phase for ADP and its metabolites were conducted by using the WinNonlin linear regression program (Pharsight corporation, Statistical consultants, Inc., Kentucky, USA).

## [3H]c1c(Cc2cnc(N)nc2N)cc(OC)c(N(C)C)c1OC [^3H-ADP]
Adrenal
  Elimination kinetics Ke: 0.28
Bladder
  Elimination kinetics Ke: 0.56
  Elimination kinetics t1/2: 29.5 h
Blood
  Elimination kinetics Ke: 0.22
  Elimination kinetics t1/2: 75.4 h
Brain
  Elimination kinetics Ke: 0.26
  Elimination kinetics t1/2: 64.6 h
Fat
  Elimination kinetics Ke: 0.26
Gonades
  Elimination kinetics Ke: 0.40
  Elimination kinetics t1/2: 41.5 h
Heart
  Elimination kinetics Ke: 0.24
  Elimination kinetics t1/2: 70.8 h
Kidney
  Elimination kinetics Ke: 0.21
Large Intestine
  Elimination kinetics Ke: 0.40
  Elimination kinetics t1/2: 41.3 h
Liver
  Elimination kinetics Ke: 0.18
Lung
  Elimination kinetics Ke: 0.24
  Elimination kinetics t1/2: 69.1 h
Muscle
  Elimination kinetics Ke: 0.25
Pancreas
  Elimination kinetics Ke: 0.26
  Elimination kinetics t1/2: 63.6 h
Skin
  Elimination kinetics Ke: 0.19
  Elimination kinetics t1/2: 86.2 h
Small Intestine
  Elimination kinetics Ke: 0.36
  Elimination kinetics t1/2: 46.3 h
Spleen
  Elimination kinetics Ke: 0.24
  Elimination kinetics t1/2: 69.4 h
Stomach
  Elimination kinetics Ke: 0.27
  Elimination kinetics t1/2: 62.6 h
Thymus
  Elimination kinetics Ke: 0.35
  Elimination kinetics t1/2: 48.2 h
